Source: patent US11931362B2 (CIPLA LIMITED, priority 2019, dated 2024)

System: Escherichia coli, Staphylococcus aureus, Pseudomonas aeruginosa, Candida albicans, and Aspergillus niger
Assay: Preservative efficacy test, overall outcome
Format: cell-based
Conditions: bacteria and fungi
Procedure: Preservative effectiveness tests are compendial-guided assays that determine efficacy for preservative systems in pharmaceutical preparations. In such assays, test formulations are challenged with standardized suspensions of indicator aerobic bacteria and molds and microorganism survival is monitored over a 28-day period. The efficacy of the preservative against various microorganisms was measured using a USP/EP preservative efficacy test. These tests were conducted on Memmert equipment. In the procedure, formulations were tested against the following microorganisms: Escherichia coli, Staphylococcus aureus, Pseudomonas aeruginosa, Candida albicans, and Aspergillus niger. The bacterial strains and fungi were inoculated at a total concentration of […]. Samples were incubated for 7 days at room temperature (25° C.), and the total bacterial and fungal counts were measured using a colony counter. The log reduction (LR) values for the bacterial and fungal counts were calculated as log (initial count/final count).

OCc1ccccc1 [benzyl alcohol]
preservative efficacy test outcome: effective
